From patent US20150150909A1, “ANTI-GLYCATION METHODS AND COMPOSITIONS” (CORE INTELLECTUAL PROPERTIES HOLDINGS, LLC, priority 2007, published 2015)
Values joined by “and” are separate entries in the source; they are usually repeats but may differ in a detail not shown here. Equal entries are not always repeated.

Tests used:
[1] = tested on: Normal human dermal fibroblasts (NHDF); experiment: AGE in extracellular matrix collagen of glucose-treated NHDF, anti-AGE antibody spot blot (Example 2); assay type: cell-based; conditions: 1 mg/ml; for Intensity (AU): single replicates, hydrochloride
Protocol: Normal human dermal fibroblasts (NHDF) were cultivated in conditions that allow the synthesis of high amounts of extracellular matrix (ECM). NHDF were grown to confluence in normal medium in adequate format. Vitamin C was added to the media to induce matrix synthesis/deposition Cells were treated, (or not treated for the negative control) by three concentrations of the mineral extract composition or by a reference compound for a positive control (aminoguanidine). All the conditions were performed in triplicate. An excess of glucose was added to the cells and the cells were incubated at 37° C. for 15 days. At the end of the time, ECM proteins (mainly collagen) were extracted and purified and a fraction of each sample was loaded onto nitrocellulose in reproducible spots. The introduction of AGEs in collagen was shown using an anti-AGE antibody and it was labeled using a peroxidase conjugate and chemiluminescent reaction (ECL). Relative signal qualification was performed using a chemiluminescense imager.

albumin [2] = experiment: Albumin/glucose anti-glycation assay (Example 1); assay type: biochemical; conditions: 1 mM; positive control; FIG. 1
Protocol: Each reaction mixture contained 10 mg/ml albumin (Sigma) in PBS with 500 mM glucose (Sigma G8270) in PBS. The negative control was 10 mg/ml albumin without glucose. A negative control was used for each experimental point. The positive control was 10 mg/ml albumin with 500 mM glucose with 1 mM aminoguanidine hydrochloride (Sigma 396494).
Each mineral extract composition was diluted in type I sterile water to 10 mg/ml sterilized by 0.22 micron filtration and incubated at dilutions 100 ug/ml, 10 ug/ml, 1 ug/ml and 0.1 ug/ml with the reaction mixture with or without glucose for 11 days at 37° C. in the presence of sodium azide.
Protein glycation was detected by the increase of non-tryptophan fluorescence (excitation at 360 nm, emission at 460 nm) using microplate fluorometer Cytofluor 2350 (Millipore), as described (Argirova and Argirov, 2003). The glycation value for each experimental point was obtained by subtracting the background reading (samples without glucose).

albumin [3] = experiment: AGE formation in the albumin/glucose model system (Example 11); assay type: biochemical
Protocol: Mineral extract composition (TL, ˜3% Solution) and a mogroside/mineral extract composition (SS II), Luo Han Guo Extract (L, Lot #MOG01-060502), Erythritol (E, Lot #07J241BP952) and Xylitol (X, Lot #H125T7G1) were kept at room temperature. […] The positive inhibitor control was aminoguanindine hydrochloride (AG) at 1 mM, (Sigma 396494). Protein glycation was detected by the increase of non-tryptophan fluorescence (excitation at 360 nm, emission at 460 nm) using microplate fluorometer Cytofluor 2350 (Millipore), as previously described (Argirova and Argirov, 2003). The glycation value for each experimental point was obtained by subtracting the background reading (samples without glucose) and was expressed as % of control (water).

human dermal fibroblasts = experiment: MTT mitochondrial metabolism assay (Example 10); assay type: cell-based
Excerpt: The objective of this Example was to test the effect of 4 samples: A mogroside/mineral extract composition (Labeled—1 in FIG. 6A), mineral extract composition (Labeled—2 in FIG. 6A), Sucralose liquid concentrate (Labeled—3 in FIG. 6A) and erythritol (Labeled—4 in FIG. 6A) on the mitochondrial metabolism I fibroblast populations, using MTT assay. MTT assay measures the activity of succinate dehydrogenase, a key enzyme in the respiratory electron transport chain in mitrochondria (Berridge & Tan, 1993).
Test materials-were mogroside/mineral extract composition as made above in Example 9, mineral extract composition (˜3% Solution), Sucralose Liquid Concentrate (25% Sucralose by weight)—lot #F2304B311LB and Erythritol (25% Aqueous Solution)—lot #RFA 2104-35, and were kept at room temperature. Materials were diluted in type I sterile water, filtered through a 0.22μ filter and assayed at final concentrations of 2.5%, 0.5% and 0.05% (v:v) on human dermal fibroblasts (Invitrogen) for 72 h in high glucose DMEM medium with 5% calf serum.
In order to measure mitochondrial metabolism in whole cell populations, at the end of the experiment, MTT (3-(4,5-dimethylthiazol-2-yl)-2,5-diphenyltetrazolium bromide, Sigma cat. #M 5655) was added to cell cultures and incubation was continued for an additional 2 hours. Culture media were then discarded and intracellular MTT reduction product formazan was solubilized in 90% isopropanol. The colorimetric signal proportional to the mitochondrial activity in the cell cultures was measured with the BioRad microplate spectrophotometer 3550-UV at 570 nm.

[4] = tested on: adult human dermal fibroblasts (aHDF); experiment: Type I collagen sandwich ELISA in aHDF conditioned medium (Example 9); assay type: cell-based; conditions: all concentrations tested (0.5%, 0.1%, 0.05%, 0.01% w:v); 72 h
Protocol: A mineral extract composition (TL), Lot #100-151106, ˜3% Solution, and a mogroside/mineral extract composition as taught herein (SS II), mogrosides of Luo Han Guo Extract (Luo HG, Lot #MOG01-060502), Erythritol (Eryt, Lot #07241BP952) and Xylitol (Xylit, Lot #H125T7G1) were tested in the assay. All test materials were kept at room temperature. […] Water was the non-treated control and magnesium ascorbyl phosphate (MAP cat. #A8960, Sigma, St. Louis, Mo.) was the positive control. Cell culture conditioned media were harvested 72 h after the start of the experiment and tested for type I collagen by sandwich ELISA using affinity-purified antibodies, followed by streptavidin-avidin-HRP conjugate and ABTS, according to standard ELISA protocol (Dobak et al., 1994, Zhao et al, 2005). The colorimetric signal proportional to collagen content was measured with the BioRad microplate spectrophotometer 3550-UV at 405 nm.

[5] = tested on: Normal human dermal fibroblasts; experiment: Type I collagen sandwich ELISA in fibroblast conditioned medium (Example 4); assay type: cell-based; conditions: positive control; 5 days; FIG. 3
Protocol: Normal human dermal fibroblasts (passage 7, lot #7F1254, Cambrex, Walkersville, Md.) were seeded in a 96-well plate (plate #431) in DMEM medium (high glucose) containing 5% fetal calf serum, and grown to late subconfluent stage. Aqueous solutions of mineral extract composition were prepared in sterile Type I water and added to cell cultures at 1/20 dilution. Water was the non-treated control and magnesium ascorbyl phosphate (MAP cat. #A8960, Sigma, St. Louis, Mo.) was the positive control. Cell culture conditioned media were harvested 5 days after the start of the experiment and tested for type I collagen by sandwich ELISA using affinity-purified antibodies, followed by streptavidin-avidin-HRP conjugate and ABTS, according to standard ELISA protocol (Dobak et al., 1994, Zhao et al, 2005).
The colorimetric signal proportional to collagen content was measured with the BioRad microplate spectrophotometer 3550-UV at 405 nm. See FIG. 3, Effect of mineral extract composition on type I collagen in HDF-conditioned medium.

[6] = tested on: human dermal fibroblasts from a donor; experiment: MTT mitochondrial metabolism assay (Example 3); assay type: cell-based
Protocol: The objective of this assay was to test the effect of mineral extract compositions (6 lots) on the mitochondrial metabolism in a cell culture population, using MTT assay. MTT assay measures the activity of succinate dehydrogenase, a key enzyme in the respiratory electron transport chain is mitochondria (Berridge & Tan, 1993).
Mineral extract compositions were diluted in type I sterile water to 10 mg/ml, sterilized by 0.22 micron filtration and incubated at dilutions 500 ug/ml, 50 ug/ml and 5 ug/ml and 0.5 ug/ml with 2,500 human dermal fibroblasts from a donor (Cascade Biologics, lot #061215-901) per well for 72 h in high glucose DMEM medium with 2.5% calf serum.
For mitochondrial metabolism measurement, at the end of the experiment, MTT (3-(4,5-dimethylthiazol-2-yl)-2,5-diphhenyltetrazolium bromide, Sigma cat. #M 5655) was added to cell cultures and incubated for 2 h. Culture media were then discarded and intracellular MTT reduction product formazan was solubilized in 100% DMSO. The colorimetric signal proportional to the mitochondrial activity in the cell cultures was measured with the BioRad microplate spectrophotometer 3550-UV at 570 nm.
The mitochondrial metabolism was standardized with regard to cell numbers by establishing the ratio of the two corresponding signals.

[7] = tested on: Clostridium collagenase IV; experiment: Metalloproteinase (collagenase) activity, Enzcheck quenched fluorescent gelatin (Example 5); assay type: biochemical; conditions: 100 ug/ml; positive control
Protocol: Metalloproteinase (MP) (collagenase) activity was measured with Enzcheck kit from Molecular Probes (Invitrogen, IL) using quenched fluorescent gelatin and Clostridium collagenase IV, a generic metalloproteinase. Mineral extract composition, in dilutions of 500 ug/ml, 50 ug/ml and 5 ug/ml and 0.5 ug/ml, were incubated in the presence of collagenase substrate-quenched fluorescin-linked gelatin and in the presence of the proteolytic enzyme collagenase. Phenanthroline, a potent MP inhibitor was used as positive control at 100 ug/ml. The kinetics of the release of the digested, fluorescent gelatin were measured at excitation/emission wavelengths of 485/530 nm with Millipore Cytofluor 2350 microfluorometer.

[8] = 2.5%, 0.5% and 0.05% (v:v), 72 h, FIG. 6A

## Cl.N=C(N)NN [Aminoguanidine, aminoguanidine hydrochloride]
[1]; First membrane
  % Control: 62%
  Average: 33454 AU
  Intensity (AU): 38328 AU and 37316 AU and 24719 AU
[1]; Membrane 2
  % Control: 64%
  Average: 38752 AU
  Intensity (AU): 38464 AU (2×) and 41333 AU (2×) and 36460 AU (2×)
Albumin [2]
  inhibitory activity on albumin glycation: good inhibitory activity
Albumin [3]; 1 mM, positive inhibitor control
  glycation-inhibitory activity: strong glycation-inhibitory activity

## OC[C@@H](O)[C@@H](O)CO [Erythritol]
Human dermal fibroblasts; [8]
  effect on mitochondrial metabolism (MTT): no activity
Albumin [3]; at lower concentrations
  glycation-inhibitory effect: moderate inhibitory effect
[4]
  collagen-stimulatory activity: no significant activity

## O=C1O[C@H]([C@@H](O)CO)C([O-])=C1OP(=O)([O-])[O-].O=C1O[C@H]([C@@H](O)CO)C([O-])=C1OP(=O)([O-])[O-].[Mg+2].[Mg+2].[Mg+2] [MAP, magnesium ascorbyl phosphate]
[5]
  stimulation of collagen I: Strong stimulation

## OC[C@H]1O[C@H](O[C@]2(CCl)O[C@H](CCl)[C@@H](O)[C@@H]2O)[C@H](O)[C@@H](O)[C@H]1Cl [Sucralose]
Human dermal fibroblasts; [8]
  effect on mitochondrial metabolism (MTT): inhibited cell metabolism

## OC[C@@H](O)[C@H](O)[C@@H](O)CO [Xylitol]
Albumin [3]; all concentrations tested (0.5%, 0.1%, 0.05%, 0.01% w:v), FIG. 7
  glycation-inhibitory effect: no effect
[4]
  collagen-stimulatory activity: no significant activity

## CN(CC(=O)O)C(=N)N [creatine]
[6]; 500 ug/ml, 72 h
  stimulation of mitochondrial metabolism: 6.3%

## c1cnc2c(c1)ccc1cccnc12 [phenanthroline, Phenanthroline]
[7]
  MP activity: totally inhibited

## bFGF: basic fibroblast growth factor, positive control
Human dermal fibroblasts; 15 nM, positive control
  effect on mitochondrial metabolism (MTT): metabolic stimulation
[6]; results not shown
  sensitivity of fibroblast mitochondrial metabolism: not sensitive
